Our source for the inhibition values is patent publication US20230072683A1, “PYRIDO-PYRIMIDIN DERIVATIVES AND PHARMACEUTICAL COMPOSITION, FOR USE IN PREVENTING OR TREATING PI3 KINASE RELATED DISEASES, COMPRISING SAME AS ACTIVE INGREDIENT” (BORYUNG PHARMACEUTICAL CO., LTD, priority 2019, published 2023).

Assay [1] deals with PI3K-δ (PI3K(p1108/p857) (h)) (Homo sapiens, UniProt O00329). Description: Evaluation of inhibitory activity against PI3K-δ (HTRF kinase assay). Type of assay: biochemical. Conditions: compound at 0.1 μM; read-out: EXP_VALUE(% Inhibition) PI3K-δ 0.1 μM. The essentials:
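HTRF read-out (665/620 nm ratio ×10000) used Eu-labelled anti-GST, GST-tagged GRP1 PH domain and streptavidin-allophycocyanin after EDTA/PIP3 stop.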

The next assay addresses DNA-PK(h) (Homo sapiens, UniProt P78527). Description: Evaluation of inhibitory activity against DNA-PK (HTRF kinase assay, GST-cMyc-p53 substrate). The format is biochemical. Conditions: compound at 0.1 μM; read-out: EXP_VALUE(% Inhibition) DNA-PK(h) 0.1 μM. The essentials:
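Human DNA-PK with 50 μM GST-cMyc-p53 substrate; reaction started with Mg/ATP, run 30 min at room temperature, stopped with EDTA. Phospho-Ser15 p53 detected by HTRF (Eu anti-phospho-Ser15, d2 anti-GST), signal = 10000×(Em 665/Em 620).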
A general note: Time-resolved FRET reads energy transfer from a long-lived donor to a nearby acceptor.

Structures are written as SMILES.

As usually defined, the inhibition is the relative decrease from the control value, in per cent.

PI3K-δ (PI3K(p1108/p857) (h)), sequence (O00329 whole entry, the tested form may be a part): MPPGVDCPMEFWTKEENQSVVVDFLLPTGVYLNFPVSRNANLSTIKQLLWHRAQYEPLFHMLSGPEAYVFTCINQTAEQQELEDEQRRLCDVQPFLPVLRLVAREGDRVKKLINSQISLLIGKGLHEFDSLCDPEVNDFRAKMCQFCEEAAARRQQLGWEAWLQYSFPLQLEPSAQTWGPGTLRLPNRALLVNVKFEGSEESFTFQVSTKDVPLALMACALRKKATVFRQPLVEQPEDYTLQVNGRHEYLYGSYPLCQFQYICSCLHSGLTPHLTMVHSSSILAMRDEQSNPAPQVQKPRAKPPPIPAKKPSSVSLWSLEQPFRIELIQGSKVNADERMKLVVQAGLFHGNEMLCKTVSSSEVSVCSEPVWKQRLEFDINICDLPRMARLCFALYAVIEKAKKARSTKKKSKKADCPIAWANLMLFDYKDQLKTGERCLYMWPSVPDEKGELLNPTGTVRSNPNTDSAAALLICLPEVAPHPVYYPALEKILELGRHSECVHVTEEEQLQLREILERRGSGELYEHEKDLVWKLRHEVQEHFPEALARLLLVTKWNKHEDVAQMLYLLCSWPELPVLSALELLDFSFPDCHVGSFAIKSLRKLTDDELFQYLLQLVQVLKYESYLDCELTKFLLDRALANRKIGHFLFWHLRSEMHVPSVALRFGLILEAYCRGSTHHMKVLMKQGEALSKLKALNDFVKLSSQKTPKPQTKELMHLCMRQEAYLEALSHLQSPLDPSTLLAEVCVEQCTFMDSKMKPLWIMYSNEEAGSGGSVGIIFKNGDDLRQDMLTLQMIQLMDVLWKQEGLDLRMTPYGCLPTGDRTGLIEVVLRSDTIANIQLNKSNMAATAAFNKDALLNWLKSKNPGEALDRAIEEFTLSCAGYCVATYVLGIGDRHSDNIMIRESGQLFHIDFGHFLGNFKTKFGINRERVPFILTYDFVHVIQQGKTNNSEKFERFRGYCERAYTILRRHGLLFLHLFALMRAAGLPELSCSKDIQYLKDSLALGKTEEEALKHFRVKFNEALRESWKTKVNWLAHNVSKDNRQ
PI3K-δ (PI3K(p1108/p857) (h)), sequence (P27986 whole entry partner, the tested form may be a part): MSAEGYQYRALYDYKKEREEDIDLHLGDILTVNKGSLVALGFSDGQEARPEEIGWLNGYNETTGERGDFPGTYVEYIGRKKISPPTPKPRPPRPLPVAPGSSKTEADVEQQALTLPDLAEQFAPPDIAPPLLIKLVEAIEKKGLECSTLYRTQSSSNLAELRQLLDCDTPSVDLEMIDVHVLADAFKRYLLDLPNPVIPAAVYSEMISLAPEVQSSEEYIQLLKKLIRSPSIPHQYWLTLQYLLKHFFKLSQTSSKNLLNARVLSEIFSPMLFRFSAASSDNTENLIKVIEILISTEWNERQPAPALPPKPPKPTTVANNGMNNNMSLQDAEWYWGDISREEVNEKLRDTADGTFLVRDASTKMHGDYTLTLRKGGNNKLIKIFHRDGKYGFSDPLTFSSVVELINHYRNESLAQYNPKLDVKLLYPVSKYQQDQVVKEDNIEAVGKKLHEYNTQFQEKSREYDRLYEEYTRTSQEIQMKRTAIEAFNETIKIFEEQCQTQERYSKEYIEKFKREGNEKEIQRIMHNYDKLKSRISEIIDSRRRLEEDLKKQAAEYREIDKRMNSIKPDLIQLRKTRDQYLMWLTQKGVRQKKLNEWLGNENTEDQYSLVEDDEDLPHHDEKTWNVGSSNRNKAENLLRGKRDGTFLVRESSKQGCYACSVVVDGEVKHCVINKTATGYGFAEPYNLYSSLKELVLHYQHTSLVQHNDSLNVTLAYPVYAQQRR

On to `COc1ncc(-c2cccc3cc([C@H](C)Nc4ncnc5[nH]ccc(=O)c45)n(-c4ccccc4)c(=O)c23)cn1` [Example 383, (S)-4-((1-(8-(2-methoxypyrimidin-5-yl)-1-oxo-2-phenyl-1,2-dihydroisoquinolin-3-yl)ethyl)amino)pyrido[2,3-d]pyrimidin-5(8H)-one], for which the inhibition at 0.1 µM in assay [1] turned out to be 79%; at DNA-PK(h), 10%.

Regarding `CCOc1ncc(-c2cccc3cc([C@H](C)Nc4ncnc5[nH]ccc(=O)c45)n(-c4ccccc4)c(=O)c23)cn1` [Example 384, (S)-4-((1-(8-(2-ethoxypyrimidin-5-yl)-1-oxo-2-phenyl-1,2-dihydroisoquinolin-3-yl)ethyl)amino)pyrido[2,3-d]pyrimidin-5(8H)-one], the inhibition at 0.1 µM in assay [1] was 85%; at DNA-PK(h) it was 40%.

Regarding `C[C@H](Nc1ncnc2[nH]ccc(=O)c12)c1cc2cccc(-c3cnc(C(F)(F)F)nc3)c2c(=O)n1-c1ccccc1` [Example 385, (S)-4-((1-(1-oxo-2-phenyl-8-(2-(trifluoromethyl)pyrimidin-5-yl)-1,2-dihydroisoquinolin-3-yl)ethyl)amino)pyrido[2,3-d]pyrimidin-5(8H)-one], the values for the inhibition at 0.1 µM (in assay [1]; at DNA-PK(h)) were 75% and 4%, respectively.

On to `C[C@H](Nc1ncnc2[nH]ccc(=O)c12)c1cc2cccc(-c3cnc(C(C)(C)O)nc3)c2c(=O)n1-c1ccccc1` [Example 386, (S)-4-((1-(8-(2-(2-hydroxypropan-2-yl)pyrimidin-5-yl)-1-oxo-2-phenyl-1,2-dihydroisoquinolin-3-yl)ethyl)amino)pyrido[2,3-d]pyrimidin-5(8H)-one], for which the inhibition at 0.1 µM amounted to 85% in assay [1] and 16% on DNA-PK(h).

With `Cc1ccc(-c2cccc3c(Cl)c([C@H](C)Nc4ncnc5[nH]ccc(=O)c45)n(-c4ccccc4)c(=O)c23)s1` [Example 387, (S)-4-((1-(4-chloro-8-(5-methylthiophen-2-yl)-1-oxo-2-phenyl-1,2-dihydroisoquinolin-3-yl)ethyl)amino)pyrido[2,3-d]pyrimidin-5(8H)-one], the figures for the inhibition at 0.1 µM (in assay [1]; at DNA-PK(h)) were 72% and 58%, respectively.

On to `C[C@H](Nc1ncnc2[nH]ccc(=O)c12)c1c(Cl)c2cccc(-c3cccs3)c2c(=O)n1-c1ccccc1` [Example 388, (S)-4-((1-(4-chloro-1-oxo-2-phenyl-8-(thiophen-2-yl)-1,2-dihydroisoquinolin-3-yl)ethyl)amino)pyrido[2,3-d]pyrimidin-5(8H)-one], for which the figures for the inhibition at 0.1 µM (in assay [1]; on DNA-PK(h)) were 80% and 68%, respectively.

`C[C@H](Nc1ncnc2[nH]ccc(=O)c12)c1c(Cl)c2cccc(C(F)(F)F)c2c(=O)n1-c1ccccc1` [Example 389, (S)-4-((1-(4-chloro-1-oxo-2-phenyl-8-(trifluoromethyl)-1,2-dihydroisoquinolin-3-yl)ethyl)amino)pyrido[2,3-d]pyrimidin-5(8H)-one]: the inhibition at 0.1 µM in assay [1] was 90%; at DNA-PK(h), 32%.

Regarding `C[C@H](Nc1ncnc2[nH]ccc(=O)c12)c1c(Cl)c2cccc(S(C)(=O)=O)c2c(=O)n1-c1ccccc1` [Example 390, (S)-4-((1-(4-chloro-8-(methylsulfonyl)-1-oxo-2-phenyl-1,2-dihydroisoquinolin-3-yl)ethyl)amino)pyrido[2,3-d]pyrimidin-5(8H)-one], the values for the inhibition at 0.1 µM (in assay [1]; on DNA-PK(h)) were 89% and 18%, respectively.

Consider `C[C@H](Nc1ncnc2[nH]ccc(=O)c12)c1c(Cl)c2cccc(S(=O)(=O)c3ccncc3)c2c(=O)n1-c1ccccc1` [Example 391, (S)-4-((1-(4-chloro-1-oxo-2-phenyl-8-(pyridin-4-ylsulfonyl)-1,2-dihydroisoquinolin-3-yl)ethyl)amino)pyrido[2,3-d]pyrimidin-5(8H)-one], for which the inhibition at 0.1 µM in assay [1] was 98%; on DNA-PK(h), 22%.

With `C[C@H](Nc1ncnc2[nH]ccc(=O)c12)c1c(Cl)c2cccc(-c3cnc(S(C)(=O)=O)nc3)c2c(=O)n1-c1ccccc1` [Example 392, (S)-4-((1-(4-chloro-8-(2-(methylsulfonyl)pyrimidin-5-yl)-1-oxo-2-phenyl-1,2-dihydroisoquinolin-3-yl)ethyl)amino)pyrido[2,3-d]pyrimidin-5(8H)-one], the inhibition at 0.1 µM in assay [1] turned out to be 94%; at DNA-PK(h), 45%.

For `C[C@H](Nc1ncnc2[nH]ccc(=O)c12)c1c(Cl)c2cccc(S(=O)(=O)c3ccc(Cl)cc3)c2c(=O)n1-c1ccccc1` [Example 393, (S)-4-((1-(4-chloro-8-((4-chlorophenyl)sulfonyl)-1-oxo-2-phenyl-1,2-dihydroisoquinolin-3-yl)ethyl)amino)pyrido[2,3-d]pyrimidin-5(8H)-one], the values for the inhibition at 0.1 µM (in assay [1]; at DNA-PK(h)) were 84% and 17%, respectively.

On to `C[C@H](Nc1ncnc2[nH]ccc(=O)c12)c1c(Cl)c2cccc([S@+]([O-])c3ccc(OC(F)(F)F)cc3)c2c(=O)n1-c1ccccc1` [Example 395, 4-(((S)-1-(4-chloro-1-oxo-2-phenyl-8-(((R)-4-(trifluoromethoxy)phenyl)sulfinyl)-1,2-dihydroisoquinolin-3-yl)ethyl)amino)pyrido[2,3-d]pyrimidin-5(8H)-one], for which the inhibition at 0.1 µM in assay [1] amounted to 12%; on DNA-PK(h), 15%.

On to `CCC[S@+]([O-])c1cccc2c(Cl)c([C@H](C)Nc3ncnc4[nH]ccc(=O)c34)n(-c3ccccc3)c(=O)c12` [Example 396, 4-(((S)-1-(4-chloro-1-oxo-2-phenyl-8-((S)-propylsulfinyl)-1,2-dihydroisoquinolin-3-yl)ethyl)amino)pyrido[2,3-d]pyrimidin-5(8H)-one], for which the inhibition at 0.1 µM in assay [1] amounted to 29%; on DNA-PK(h) it was 46%.

Regarding `CCC[S@@+]([O-])c1cccc2c(Cl)c([C@H](C)Nc3ncnc4[nH]ccc(=O)c34)n(-c3ccccc3)c(=O)c12` [Example 397], the inhibition at 0.1 µM in assay [1] was 94%; at DNA-PK(h), 34%.

With `C[C@H](Nc1ncnc2[nH]ccc(=O)c12)c1c(Cl)c2cccc(Sc3ccc(F)cc3)c2c(=O)n1-c1ccccc1` [Example 398, (S)-4-((1-(4-chloro-8-((4-fluorophenyl)thio)-1-oxo-2-phenyl-1,2-dihydroisoquinolin-3-yl)ethyl)amino)pyrido[2,3-d]pyrimidin-5(8H)-one], the inhibition at 0.1 µM in assay [1] was determined as 7%; on DNA-PK(h) it was 3%.

For `C[C@H](Nc1ncnc2[nH]ccc(=O)c12)c1c(Cl)c2cccc(S(=O)(=O)c3ccc(F)cc3)c2c(=O)n1-c1ccccc1` [Example 399, (S)-4-((1-(4-chloro-8-((4-fluorophenyl)sulfonyl)-1-oxo-2-phenyl-1,2-dihydroisoquinolin-3-yl)ethyl)amino)pyrido[2,3-d]pyrimidin-5(8H)-one], the inhibition at 0.1 µM in assay [1] was determined as 92%; at DNA-PK(h), 23%.

On to `C[C@H](Nc1ncnc2[nH]ccc(=O)c12)c1c(Cl)c2cccc(Sc3nc[nH]n3)c2c(=O)n1-c1ccccc1` [Example 400, (S)-4-((1-(8-((1H-1,2,4-triazol-3-yl)thio)-4-chloro-1-oxo-2-phenyl-1,2-dihydroisoquinolin-3-yl)ethyl)amino)pyrido[2,3-d]pyrimidin-5(8H)-one], for which the inhibition at 0.1 µM in assay [1] is 16%; at DNA-PK(h), -2%.
